Results from patent publication US4528289A, “Corynantheine derivates, processes for their preparation, and their use” (Dr. Willmar Schwabe GmbH & Co., priority 1982, dated 1985).

How the values were obtained:
CHCl3 arrhythmia = assay: inhibition of CHCl3 arrhythmia on mice, i.p.; assay type: in vivo
Description: (§1) The antiarrhythmic effectiveness of DHCN and THCN was investigated on mice and rats.

mice [1] = assay: acute toxicity, LD50 (Litchfield and Wilcoxon) on mice; assay type: in vivo; conditions: i.v., i.p. and oral LD50, mice
Description: (§2) The toxicity of the compounds according to the present invention can be seen from the LD50 values given in the following Table 8 for intravenous, intraperitoneal and oral administration.

[2] = as above; assay type: in vivo; conditions: mouse, in vivo, mice
Description: as §2

mice [3] = assay: sedating action on mice after oral administration; assay type: in vivo; conditions: 5 to 20 mg/kg, dosage-dependent
[4] = test system: systolic blood pressure of spontaneously hypertonic rats; assay: chronological course of blood pressure decrease in spontaneously hypertonic rats; assay type: in vivo, rat
Description: (§3) The blood pressure-lowering action of the compound THCN according to the present invention and of DHCN was investigated on spontaneously hypertonic rats after oral administration and compared with that of ajmalicine. The method thereby used for the measurement of the systolic blood pressure and of the heart rate on rats is described in Arzneimittel-Forschung, 18, 1285-1287/1968. Before commencement of the experiments, the animals were familiarised with the measurement procedure.
(§4) In a further series of experiments, the chronological course of the blood pressure lowering was investigated. For this purpose, spontaneously hypertonic rats were treated with 10 mg./kg. DHCN and with 5 or 10 mg./kg. THCN per os and in each case 6 or 12 animals of the treated group were measured at definite times after the treatment.

[5] = test system: systolic blood pressure of spontaneously hypertonic rats; assay: regression analysis of the dosage-activity relationship (blood pressure lowering); assay type: in vivo, rat; conditions: compared with DHCN and ajmalicine
Description: as §3
(§5) In a first series of experiments, the systolic blood pressure and the heart rate were investigated 2 hours after the oral administration of the test substances in the form of their hydrochlorides. The substances were suspended in 0.2% agar and administered in a volume of 10 ml./kg. It follows therefrom that all three substances lower the blood pressure in a dosage-dependent manner.
The calculation of the regression lines gives, in all three cases, a statistically significant correlation between dosage and degree of blood pressure lowering (cf. the following Table 4). For ajmalicine, in the case of a dosage of 56 mg./kg., the lowering reached a maximum of about 18%, which could not be exceeded with dosages of up to 100 mg./kg.

mice [6] = assay: body temperature-lowering action on mice after oral administration; assay type: in vivo; conditions: 5 to 20 mg/kg, dosage-dependent
[7] = test system: aconitine-induced arrythmias; assay: protection against aconitine-induced arrhythmias in urethane-narcotised rats, i.v.; assay type: in vivo; conditions: 2 to 5 mg/kg (THCN)
Description: as §1

[8] = test system: "head twitch" syndrome caused by 5-hydroxytryptophane; assay: inhibition of "head twitch" syndrome caused by 5-hydroxytryptophane on mice; assay type: in vivo; conditions: concluded from head twitch test
[9] = test system: systolic blood pressure of spontaneously hypertonic rats; assay: systolic blood pressure of spontaneously hypertonic rats after oral administration; assay type: in vivo, rat; conditions: 2 h, tetrahydrocorynantheine
Description: as §3, §5

[10] = test system: stereotypy brought about by apomorphine; assay: potentiation of apomorphine stereotypy in mice; assay type: in vivo; conditions: oral, 10 to 20 mg/kg
[11] = test system: heart rate of spontaneously hypertonic rats; assay: chronological course of heart rate of spontaneously hypertonic rats; assay type: in vivo, rat; set-up: heart rate at time t: unit not given here
Description: as §3, §4

[12] = test system: heart rate of spontaneously hypertonic rats; assay: heart rate of spontaneously hypertonic rats after oral administration; assay type: in vivo, rat; conditions: 2 h, tetrahydrocorynantheine
Description: as §3, §5

[13] = stability towards acids and other agents; assay type: physicochemical

## CC[C@H]1CN2CCc3c([nH]c4ccccc34)[C@@H]2C[C@@H]1C(COC)C(=O)OC (some centres unmarked) [THCN, tetrahydrocorynantheine]
CHCl3 arrhythmia
  antiarrhythmic effectiveness, chloroform arrythmias (in words): dosage-dependently inhibited the arrythmias caused by chloroform
CHCl3 arrhythmia; 10 mg/kg
  inhibition in % of CHCl3 arrhythmia: 10%
CHCl3 arrhythmia; 15 mg/kg
  inhibition in % of CHCl3 arrhythmia: 60%
CHCl3 arrhythmia; 25 mg/kg
  inhibition in % of CHCl3 arrhythmia: 90%
Mice [1]
  toxicities compared (in words): almost the same
[2]; ip
  LD50: 133 mg/kg
[2]; iv
  LD50: 14.1 mg/kg
[2]; po
  LD50: 283 mg/kg
Mice [3]
  sedating action (in words): sedating
[4]; 5 mg/kg p.o., 10 min.
  percentage decrease of blood pressure: 11.1%
[4]; 5 mg/kg p.o., 20 min.
  percentage decrease of blood pressure: 13.8%
[4]; 5 mg/kg p.o., 40 min.
  percentage decrease of blood pressure: 12.8%
[4]; 5 mg/kg p.o., 80 min.
  percentage decrease of blood pressure: 13.8%
[4]; 5 mg/kg p.o., 2 h.
  percentage decrease of blood pressure: 8.1%
[4]; 5 mg/kg p.o., 4 h.
  percentage decrease of blood pressure: -0.2%
[4]; 5 mg/kg p.o., 6 h.
  percentage decrease of blood pressure: 4.0%
[4]; 10 mg/kg p.o., 10 min.
  percentage decrease of blood pressure: 13.5%
[4]; 10 mg/kg p.o., 20 min.
  percentage decrease of blood pressure: 29.3%
[4]; 10 mg/kg p.o., 40 min.
  percentage decrease of blood pressure: 27.8%
[4]; 10 mg/kg p.o., 80 min.
  percentage decrease of blood pressure: 23.0%
[4]; 10 mg/kg p.o., 2 h.
  percentage decrease of blood pressure: 14.4%
[4]; 10 mg/kg p.o., 4 h.
  percentage decrease of blood pressure: 14.0%
[4]; 10 mg/kg p.o., 6 h.
  percentage decrease of blood pressure: 15.9%
[4]; DHCN 10 mg/kg vs THCN 5 mg/kg p.o.
  blood pressure lowering action compared (in words): the same action
[4]; DHCN 10 mg/kg, THCN 5 mg/kg p.o.
  time of maximum blood pressure lowering: about 40 minutes
[4]; DHCN 10 mg/kg, THCN 5 mg/kg p.o., after about 40 minutes
  blood pressure after the maximum (in words): the blood pressure again increases to the initial value
[4]; THCN 10 mg/kg p.o.
  blood pressure lowering action (in words): a stronger action
  time of maximum blood pressure lowering: 20 min
[4]; THCN 10 mg/kg p.o., 20 minutes after administration
  maximum blood pressure lowering: 30%
[4]; THCN 10 mg/kg p.o., 6 hours
  blood pressure after 6 hours (in words): still distinctly below the initial value
[4]; oral administration
  blood pressure-lowering action compared with ajmalicine (in words): clearly stronger and longer-lasting blood pressure-lowering action
[5]
  dosage activity curve (in words): steeper
[5]; higher dosages
  strength of action (in words): stronger in higher dosages
Mice [6]
  body temperature-lowering action (in words): body temperature-lowering action
[7]
  antiarrhythmic effectiveness, aconitine-induced arrythmias (in words): protects against aconitine-induced arrythmias
[8]
  central antiserotoninergic action (in words): central antiserotoninergic action
[9]; 5 mg/kg p.o.
  systolic blood pressure, subsequent value: 178 ± 4 mm Hg
  systolic blood pressure, Δ: -15 ± 3 mm Hg
  systolic blood pressure, Δ %: -7.7 ± 1.8%
[9]; 10 mg/kg p.o.
  systolic blood pressure, subsequent value: 168 ± 5 mm Hg
  systolic blood pressure, Δ: -28 ± 6 mm Hg
  systolic blood pressure, Δ %: -14.3 ± 4.7%
[9]; 18 mg/kg p.o.
  systolic blood pressure, subsequent value: 165 ± 13 mm Hg
  systolic blood pressure, Δ: -33 ± 11 mm Hg
  systolic blood pressure, Δ %: -16.5 ± 5.8%
[9]; 30 mg/kg p.o.
  systolic blood pressure, subsequent value: 146 ± 5 mm Hg
  systolic blood pressure, Δ: -43 ± 5 mm Hg
  systolic blood pressure, Δ %: -21.9 ± 3.9%
[9]; 40 mg/kg p.o.
  systolic blood pressure, subsequent value: 132 ± 9 mm Hg
  systolic blood pressure, Δ: -74 ± 10 mm Hg
  systolic blood pressure, Δ %: -35.7 ± 4.7%
[10]
  apomorphine stereotypy (in words): potentiated the stereotypy
  central dopaminergic-stimulating property (in words): central dopaminergic-stimulating property
[11]; 5 mg/kg p.o., 10 min.
  heart rate at time t: 504
[11]; 5 mg/kg p.o., 20 min.
  heart rate at time t: 492
[11]; 5 mg/kg p.o., 40 min.
  heart rate at time t: 499
[11]; 5 mg/kg p.o., 80 min.
  heart rate at time t: 503
[11]; 5 mg/kg p.o., 2 h.
  heart rate at time t: 508
[11]; 5 mg/kg p.o., 4 h.
  heart rate at time t: 502
[11]; 5 mg/kg p.o., 6 h.
  heart rate at time t: 489
[11]; 10 mg/kg p.o., 10 min.
  heart rate at time t: 519
[11]; 10 mg/kg p.o., 20 min.
  heart rate at time t: 518
[11]; 10 mg/kg p.o., 40 min.
  heart rate at time t: 499
[11]; 10 mg/kg p.o., 80 min.
  heart rate at time t: 520
[11]; 10 mg/kg p.o., 2 h.
  heart rate at time t: 519
[11]; 10 mg/kg p.o., 4 h.
  heart rate at time t: 519
[11]; 10 mg/kg p.o., 6 h.
  heart rate at time t: 503
[11]; DHCN 10 mg/kg, THCN 10 mg/kg, on the border of statistical significance
  heart rate change (in words): an increase is to be observed
[11]; THCN 5 mg/kg
  heart rate change (in words): does not change
[12]; 5 mg/kg p.o.
  heart rate, subsequent value: 508 ± 7 beats/min.
  heart rate, Δ: 6 ± 12 beats/min.
  heart rate, Δ %: 1.2 ± 7.1%
[12]; 10 mg/kg p.o.
  heart rate, subsequent value: 519 ± 9 beats/min.
  heart rate, Δ: 21 ± 11 beats/min.
  heart rate, Δ %: 4.2 ± 3.3%
[12]; 18 mg/kg p.o.
  heart rate, subsequent value: 495 ± 6 beats/min.
  heart rate, Δ: 13 ± 12 beats/min.
  heart rate, Δ %: 3.3 ± 2.8%
[12]; 30 mg/kg p.o.
  heart rate, subsequent value: 493 ± 10 beats/min.
  heart rate, Δ: 22 ± 27 beats/min.
  heart rate, Δ %: 4.7 ± 6.6%
[12]; 40 mg/kg p.o.
  heart rate, subsequent value: 472 ± 14 beats/min.
  heart rate, Δ: -1 ± 29 beats/min.
  heart rate, Δ %: 1.0 ± 6.6%
[13]
  stability compared with dihydrocorynantheine (in words): substantially more stable than dihydrocorynantheine
  stability towards acids and other agents (in words): astonishingly stable towards acids and other agents
